Measurements from publication PMC6479981, “Design, Synthesis, and In Vitro Biological Activities of a Bio-Oxidizable Prodrug to Deliver Both ChEs and DYRK1A Inhibitors for AD Therapy” (Molecules, 2019).
Where two headings read alike, the source gives them in different places.

Legend:
hAChE [1] = target: T1, hAChE (Homo sapiens, UniProt P22303); assay: biochemical; format: biochemical
T1 construct: purchased Aldrich
Protocol: (§1) Inhibitory capacity of compounds on hAChE and hBuChE biological activity was evaluated through the use of Ellman’s spectrometric method. Acetylthiocholine iodide (ATCI), […] (BTCI) and 5,5-dithiobis-(2-nitrobenzoic) acid (DTNB) were purchased from Sigma Aldrich. Lyophilized hAChE and hBuChE were purchased from Aldrich, and were diluted in phosphate buffer (pH 8) so as to give an enzyme solution with 0.25 units/mL enzyme activity. In the procedure, 100 μL of 0.3 mM DTNB dissolved in phosphate buffer pH 7.4 were added into the 96 well plate, followed by 50 μL of the tested compound solution and 50 μL of enzyme solution. After 5 min of preincubation, the reaction was then initiated by the injection of 50 μL of 10 mM ATCI or BTCI solution. […] All assays were performed in duplicate, and IC50 values were determined graphically from 8 points inhibition curves using the Prism® software.

hBuChE [2] = target: T2, hBuChE (Homo sapiens, UniProt P06276); assay: biochemical; format: biochemical
T2 construct: purchased Aldrich
T2 sequence (P06276 29-602): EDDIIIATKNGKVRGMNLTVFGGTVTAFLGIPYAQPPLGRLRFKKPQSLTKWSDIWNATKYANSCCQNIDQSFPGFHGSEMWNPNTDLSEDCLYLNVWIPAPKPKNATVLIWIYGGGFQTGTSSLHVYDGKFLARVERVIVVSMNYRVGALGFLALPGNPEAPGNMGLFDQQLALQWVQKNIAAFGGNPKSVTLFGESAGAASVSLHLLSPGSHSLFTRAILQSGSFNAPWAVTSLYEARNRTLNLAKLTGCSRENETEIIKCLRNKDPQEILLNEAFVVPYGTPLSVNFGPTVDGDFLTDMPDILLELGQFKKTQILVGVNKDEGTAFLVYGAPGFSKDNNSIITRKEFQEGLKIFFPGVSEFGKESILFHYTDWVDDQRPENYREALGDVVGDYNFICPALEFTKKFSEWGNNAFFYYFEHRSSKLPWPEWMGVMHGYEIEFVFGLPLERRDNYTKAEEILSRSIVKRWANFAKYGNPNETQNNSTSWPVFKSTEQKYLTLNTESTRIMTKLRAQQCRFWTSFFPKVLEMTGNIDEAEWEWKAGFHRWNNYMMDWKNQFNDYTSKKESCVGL
Protocol: as §1

human recombinant DYRK1A = target: T3, human recombinant DYRK1A (Homo sapiens, UniProt Q13627); assay: biochemical; details: for inhibition at 1 µM: read-out: DYRK1a Inhibition (%)
T3 construct: Eurofins Pharma Discovery (ran the assay)
Protocol: Evaluation of the effects of compounds on the activity of the human recombinant DYRK1A was made using the LANCE® detection method, and was quantified by measuring the phosphorylation of Ulight-[…]-amide (MBP). The assays were conducted by Eurofins Pharma Discovery in Bois l’Evêque, France. […] Next, 100 nM of Ulight-[…]-amide (MBP) and 10 µM ATP were added to initiate the reaction, and the mixture was incubated for 30 min at 25 °C. A blank without enzyme was also performed for control basal measurements. The experiment was stopped by addition of 13 mM EDTA, followed by the addition of the anti-phospho-MBP antibody labeled with europium chelate after 5 min. […] Outputs are expressed as a percentage of inhibition of the control DYRK1A activity.

[3] = target: T4, peripheral binding site of eeAChE (Electrophorus electricus, UniProt O42275); assay: Propidium iodide displacement (competition) assay
T4 construct: purchased Aldrich
T4 sequence (O42275 24-633): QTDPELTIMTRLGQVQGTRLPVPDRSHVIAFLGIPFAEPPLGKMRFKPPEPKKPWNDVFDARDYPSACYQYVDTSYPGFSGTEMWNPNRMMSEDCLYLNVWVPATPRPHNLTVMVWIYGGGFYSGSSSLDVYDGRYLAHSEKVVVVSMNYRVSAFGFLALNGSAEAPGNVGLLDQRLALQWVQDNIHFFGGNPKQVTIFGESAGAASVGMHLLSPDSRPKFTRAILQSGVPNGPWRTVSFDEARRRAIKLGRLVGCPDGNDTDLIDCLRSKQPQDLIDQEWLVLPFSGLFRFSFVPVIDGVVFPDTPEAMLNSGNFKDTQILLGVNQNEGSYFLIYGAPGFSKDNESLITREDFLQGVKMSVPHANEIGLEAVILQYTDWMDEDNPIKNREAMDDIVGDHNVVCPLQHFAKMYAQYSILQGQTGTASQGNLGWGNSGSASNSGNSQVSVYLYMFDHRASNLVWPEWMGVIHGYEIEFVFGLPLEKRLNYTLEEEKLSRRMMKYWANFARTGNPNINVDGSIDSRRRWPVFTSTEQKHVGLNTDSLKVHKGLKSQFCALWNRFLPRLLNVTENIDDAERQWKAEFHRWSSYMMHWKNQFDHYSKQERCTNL
Protocol: The assays were performed at the Centre d’Etudes et de Recherche sur le Médicament de Normandie (CERMN) in Caen, France. […] Fluorescence intensity was monitored using a microplate reader. […] Each assay was performed in triplicate.

[4] = PAMPA-BBB permeability assay; format: in vitro ADME; details: pH 7.4, 4 h, room temperature
Protocol: Assays were performed at the Centre d’Etudes et de Recherche sur le Médicament de Normandie (CERMN) in Caen, France. These assays were realized according to the methodology developed by PION, by means of the Pampa-BBB Explorer™ system. This system allows the measurement of the crossing velocity of a compound from one compartment to another through an artificial membrane at pH = 7.4. The experiment was replicated 6 times in 4 h, with quantification by UV-spectra reading. The result is given in Pe [cm·s^−1], and an interpretation by comparison with standard compounds is proposed. The studied compounds were diluted at 20 mM in DMSO, then diluted at […] in Prisma HT Buffer pH 7.4 (pION). 200 µL of this solution was placed in the wells of the donor plate. 5 μL of BBB-1 Lipid was placed in the filters of the acceptor plate. 200 µL of Brain Sink Buffer was added in the wells of the acceptor plate. The sandwich was then assembled and incubated for 4 h at room temperature, without stirring. The sandwich was then separated and the UV-vis spectra of the donor and acceptor compartments were determined with the plate reader (Tecan infinite M200, Männedorf, Switzerland). Pe were calculated with the PAMPA Explorer software v.3.7 (pION Inc, Billerica, MA, USA). Standard compounds used were corticosterone and theophylline.

hBuChE [5] = target: T2, hBuChE; assay: Time-dependent (stopped time) kinetic study of hBuChE inhibition; format: biochemical
Protocol: (§2) To support the assumption of the pseudo-irreversible inhibition mechanism of both ChEs by compound 14, kinetic studies were also performed using stopped time assays at different concentrations of ligand 14. […] Using a nonlinear regression fitting analysis, the pseudo-first-order inhibition rate constant (kobs) for each concentration of 14 was obtained and the equilibrium constant (Kc) and the carbamoylation rate constant (k3) was determined by the reported method.
(§3) For the time-dependent experiments, assays were performed using a 96 well microplate reader to a final volume of 250 μL, a final enzyme concentration of 0.05 U·mL^−1 and an ATCI (or BTCI) and DNTB concentrations of 0.3 and 0.5 mM respectively in phosphate buffer (pH 8). At the starting time (t0), the inhibitor at various concentration (150 μL) was added to an equivalent volume of hAChE (or hBuChE). The mixture was then incubated at 37 °C and, at different time points, 50 μL aliquots were transferred to wells containing a solution of ATCI (or BTCI) and DTNB in phosphate buffer (200 μL) and the activity was determined by measuring the changes in absorbance at 412 nm every minute for 10 min. Blank experiments were also performed without inhibitor. The first order inhibition constant kobs was determined for all inhibitor concentrations using a nonlinear regression. Data were fitted with the equation, A = A0 exp(−kobs·t) + A∞ with A, A0, A∞ being ratios of the inhibited enzyme activity to the control activity at time t, 0, and ∞. Double reciprocal plots of kobs versus the inhibitor concentration were made to determine the equilibrium constant Kc and the carbamoylation rate constant k3, following the described method.

hAChE [6] = target: T1, hAChE; assay: Time-dependent (stopped time) kinetic study of hAChE inhibition; format: biochemical
Protocol: as §2, §3

[7] = mean value of duplicate, 5 min preincubation, read-out: IC50 hAChE
[8] = mean value of duplicate, 5 min preincubation, read-out: IC50 hBuChE
[9] = at 1 μM compound, 10 μM ATP concentration, mean value of duplicate

T1 sequence (P22303 32-614): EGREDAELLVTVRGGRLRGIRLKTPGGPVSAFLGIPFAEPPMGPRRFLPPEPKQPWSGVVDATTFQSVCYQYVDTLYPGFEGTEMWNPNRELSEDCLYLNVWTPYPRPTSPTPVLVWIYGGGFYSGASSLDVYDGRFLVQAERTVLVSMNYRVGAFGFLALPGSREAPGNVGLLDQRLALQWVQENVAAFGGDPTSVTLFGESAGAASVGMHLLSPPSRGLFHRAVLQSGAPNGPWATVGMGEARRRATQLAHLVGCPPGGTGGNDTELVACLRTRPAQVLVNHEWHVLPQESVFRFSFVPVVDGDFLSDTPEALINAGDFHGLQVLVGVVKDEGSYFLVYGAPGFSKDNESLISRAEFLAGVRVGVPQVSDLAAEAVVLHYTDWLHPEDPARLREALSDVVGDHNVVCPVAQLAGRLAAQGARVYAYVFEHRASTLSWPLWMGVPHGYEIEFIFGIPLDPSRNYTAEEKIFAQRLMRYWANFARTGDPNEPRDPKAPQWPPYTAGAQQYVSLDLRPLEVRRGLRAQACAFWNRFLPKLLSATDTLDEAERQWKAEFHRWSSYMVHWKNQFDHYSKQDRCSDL

SMILES: CCN1/C(=C/C(C)=O)Sc2ccc(OC(=O)OCCOCCNC(=O)C3=CN(C)c4ccccc4C3)cc21 [compound 16, (Z)-3-Ethyl-2-(2-oxopropylidene)-2,3-dihydrobenzo[d]thiazol-5-yl (2-(2-(1-methyl-1,4-dihydroquinoline-3-carboxamido)ethoxy)ethyl) carbonate]
- IC50 (hAChE [1]; [7]): > 10 µM
- IC50 (hBuChE [2]; [8]): > 10 µM
- inhibition at 1 µM (human recombinant DYRK1A; [9]): 7%

SMILES: CN(C)C(=O)Oc1cccc2c1cc(C(=O)NCCO)c[n+]2C [2a, reference compound]
- IC50 (hAChE [1]): 0.0371 ± 0.0001 µM
- IC50 (hBuChE [2]): 1.44 ± 0.286 µM
- inhibition at 1 µM (human recombinant DYRK1A): 0%

SMILES: CCN1/C(=C/C(C)=O)Sc2ccc(OC(=O)OCCOCCNC(=O)c3cc4ccccc4[n+](C)c3)cc21.COS(=O)(=O)[O-] [compound 15, (Z)-3-((2-(2-((((3-Ethyl-2-(2-oxopropylidene)-2,3-dihydrobenzo[d]thiazol-5-yl)oxy)carbonyl)oxy)ethoxy)ethyl)carbamoyl)-1-methylquinolin-1-ium methyl sulfate]
- inhibitory activity against hAChE (in words) (hAChE [1]): did not show any significant inhibitory activity
- IC50 (hAChE [1]; [7]): > 10 µM
- inhibitory activity against hBuChE (in words) (hBuChE [2]): did not show any significant inhibitory activity
- IC50 (hBuChE [2]; [8]): 6.4 ± 0.714 µM
- DYRK1a Inhibition (%) (human recombinant DYRK1A; [9]): 6%

SMILES: CCN1/C(=C/C(C)=O)Sc2ccc(OC(=O)OCCOCCNC(=O)C3=CN(C)c4cccc(OC(=O)N(C)C)c4C3)cc21 [compound 4, (Z)-3-((2-(2-((((3-Ethyl-2-(2-oxopropylidene)-2,3-dihydrobenzo[d]thiazol-5-yl)oxy)carbonyl)oxy)ethoxy)ethyl)carbamoyl)-1-methyl-1,4-dihydroquinolin-5-yl dimethylcarbamate]
- inhibition at 10 µM ([3]; read-out: Propidium Iodide Displacement Inhibition (%)): 4 ± 2%
- IC50 (hAChE [1]): 1.02 ± 0.0721 µM
- IC50 (hBuChE [2]): 0.961 ± 0.022 µM
- inhibition at 1 µM (human recombinant DYRK1A): 8%
- Papp at 4 h ([4]; PAMPA, read-out: Pe (PAMPA BBB, passive diffusion)): 24.1 nm/s

SMILES: CCN1/C(=C/C(C)=O)Sc2ccc(O)cc21 [Indy, reference compound]
- IC50 (hAChE [1]; [7]): > 10 µM
- IC50 (hBuChE [2]; [8]): > 10 µM

SMILES: CCN1/C(=C/C(C)=O)Sc2ccc(OC(=O)OCCOCCNC(=O)c3cc4c(OC(=O)N(C)C)cccc4[n+](C)c3)cc21.COS(=O)(=O)[O-] [compound 14, (Z)-5-((Dimethylcarbamoyl)oxy)-3-((2-(2-((((3-ethyl-2-(2-oxopropylidene)-2,3-dihydrobenzo[d]thiazol-5-yl)oxy)carbonyl)oxy)ethoxy)ethyl)carbamoyl)-1-methylquinolin-1-ium methyl sulfate]
- Propidium Iodide Displacement Inhibition (%) ([3]; compound 10^−5 M, eeAChE, propidium iodide 1 μM, mean value of triplicate): 26 ± 1%
- IC50 (hAChE [1]; [7]): 0.0814 ± 0.0004 µM
- IC50 (hBuChE [2]; [8]): 0.482 ± 0.021 µM
- carbamoylation rate constant k3 (hBuChE [5]; hBChE): 0.574 min⁻¹
- Kd (hBuChE [5]; hBChE, 37 °C, double reciprocal plot of kobs vs inhibitor concentration, read-out: equilibrium constant Kc): 0.659 µM
- second order rate constant Ki (k3/Kc), carbamylation efficacy (hBuChE [5]; hBuChE): 14500 M⁻¹ s⁻¹
- carbamoylation rate constant k3 (hAChE [6]): 0.408 min⁻¹
- second order rate constant Ki (k3/Kc), carbamylation efficacy (hAChE [6]): 29700 M⁻¹ s⁻¹
- Kd (hAChE [6]; 37 °C, double reciprocal plot of kobs vs inhibitor concentration, read-out: equilibrium constant Kc): 0.23 µM
- DYRK1a Inhibition (%) (human recombinant DYRK1A; [9]): 5%
- Pe (PAMPA BBB, passive diffusion) [4]: 0 nm/s
